Experimental data: patent US5849731A, “Indole derivatives and medical application thereof” (Toray Industries, Inc., priority 1995, dated 1998)
Read-outs that look alike come from different tables or passages of the source.

Key:
δ-opioid [1] = molecular target: T1, δ-opioid (Mus musculus, UniProt P32300); assay: δ-opioid antagonism against DPDPE in mouse vas deferens (MVD); type: biochemical, mouse (male ddy strain); conditions: for pA2: MVD, 100 nM sample compound added 20 minutes before cumulative DPDPE, Schild method
T1 construct: Each of the vas deferens isolated from the mice was hung in a Magnus tube; from tissue; host or cells: isolated vas deferens of male ddy strain mice
T1 sequence (P32300 whole entry): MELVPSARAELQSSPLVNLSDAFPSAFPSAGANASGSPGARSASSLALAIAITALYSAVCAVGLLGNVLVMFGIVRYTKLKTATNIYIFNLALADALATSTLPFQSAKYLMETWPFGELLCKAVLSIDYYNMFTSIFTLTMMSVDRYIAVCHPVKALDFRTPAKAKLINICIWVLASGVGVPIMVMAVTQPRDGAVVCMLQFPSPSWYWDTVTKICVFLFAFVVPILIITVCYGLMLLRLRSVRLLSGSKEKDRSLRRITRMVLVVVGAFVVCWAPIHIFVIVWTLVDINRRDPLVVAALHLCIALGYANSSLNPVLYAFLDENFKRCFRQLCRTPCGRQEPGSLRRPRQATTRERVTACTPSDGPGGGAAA
Procedure: (§1) Using mouse vas deferens (MVD), antagonistic compounds were examined for antagonism against a δ-opioid agonist DPDPE, and agonistic compounds were examined for inhibitory activity against MVD contraction by electric stimulation, and for antagonism by a δ-opioid antagonist NTI.
(§2) Male ddy strain mice were used in this experiment. Each of the vas deferens isolated from the mice was hung in a Magnus tube which was filled with a Krebes-Henseleit solution (NaCl […]; KCl 4.7 mM; CaCl2 2.5 mM; KH2 PO4 1.1 mM; NaHCO3 25 mM; glucose 11 mM), and aerated with a gas of 5% carbon dioxide and 95% oxygen and maintained at 37° C. Electric stimulation was applied through upper and lower ring-shaped platinum electrodes at 0.1 Hz and 5.0 mS. Tissue contraction was recorded on a polygraph using an isometric transducer.
Initially, DPDPE was added in a cumulative manner to determine the IC50 value (concentration for 50% inhibition of contraction induced by electric stimulation). Next, 100 nM of a sample compound was added to the system beforehand, and 20 minutes later, DPDPE was added in a cumulative manner. According to the above procedure, the ratio of the IC50 value of DPDPE in the presence of the sample compound to that in the absence of it was determined, and the pA2 value was calculated in accordance with the Schild, et al.'s method [Schild, H. O., Br. J. Pharamacol. Chamother. 4, 277 (1949)].

capsaicin-induced cough = assay: Antitussive action in rat, capsaicin-induced cough; type: in vivo; conditions: ip, 0.5 h, dosage for 50% cough inhibition, intraperitoneal, 10% DMSO solution, 30 minutes after administration
Procedure: Evaluation of Antitussive Action in Rat as a Model for Capsaicin-Induced Cough
Cough was induced by forcing rats to inhale capsaicin (60 μM) which was nebulized by an ultrasonic nebulizer, and fed to caps over the rats' heads through silicone tubes by a respirator. Capsaicin was fed for inhalation at a rate of 70 times/min. and 10 ml each time.
Two hundred and seventy minutes before the drug administration, capsaicin was inhaled for 5 minutes, and inducement of coughing was confirmed during this period. Thirty minutes after the drug administration, capsaicin was inhaled for 5 minutes, and the number of induced coughs during capsaicin inhalation was counted. Antitussive effect was evaluated by determining an inhibitory ratio, namely, the ratio of the number of coughs after the drug administration to that before the drug administration. Capsaicin was dissolved in saline. Each drug was dissolved in a 10% DMSO solution and intraperitoneally administered. The effect of the drug is expressed with an ED50 value which is the dosage for 50% cough inhibition

δ-opioid [2] = molecular target: T1, δ-opioid; assay: δ-opioid agonism: inhibition of electrically stimulated mouse vas deferens (MVD) contraction, antagonism by NTI; type: biochemical, mouse (male ddy strain); design: Ke: unit not given here; conditions: for Ke: against NTI added 20 minutes before, Ke=[NTI Concentration]/[(IC50 ratio)-1]
Procedure: as §1, §2
Initially, a sample compound was added in a cumulative manner to determine the IC50 value (concentration for 50% inhibition of contraction induced by electric stimulation). Next, […] was added to the system beforehand, and 20 minutes later, the sample compound was added in a cumulative manner. According to the above procedure, the ratio of the IC50 values of the sample compound in the presence of NTI to that in the absence of NTI was determined, and the Ke value was calculated in accordance with the following equation.
Ke=[NTI Concentration]/[(IC50 ratio)-1]

acetic acid writhing = assay: Analgesic action, acetic acid writhing test in mouse; type: in vivo, mouse (ddY strain); conditions: sc, dorsal-subcutaneous, 15 minutes before acetic acid, writhing reactions over 10 minutes
Procedure: Evaluation of Analgesic Action by Acetic Acid Writhing Test in Mouse
Five-week-old ddY strain mice were subjected to this experiment. A 0.6% acetic acid solution was intraperitoneally administered at a volume of 0.1 ml/10 g·.body weight. Analgesic activity was evaluated with an index which was the number of writhing reactions occurring over 10 minutes from 10 minutes after administration. The drug to be evaluated was dorsal-subcutaneously administered 15 minutes before the administration of acetic acid.

SMILES | Kb (δ-opioid [1]) | ED50 (capsaicin-induced cough) | Ke (δ-opioid [2]) | also measured
Oc1ccc2c3c1O[C@H]1c4c(c5ccc6cccc7c6c5n4CC7)C[C@@]4(O)[C@@H](C2)N(CC2CC2)CC[C@]314 [Compound 2, 17-cyclopropylmethyl-6,7-didehydro-4,5α-epoxy-3,14β-dihydroxy-1',3"-ethylene-6',7'-benzo-6,7,2',3'-indolomorphinan] | 2 nM | 0.00171 mg/kg | – | –
Oc1ccc2c3c1O[C@H]1c4c(c5cccc6c5n4Cc4ccccc4-6)C[C@@]4(O)[C@@H](C2)N(CC2CC2)CC[C@]314 [Compound 3, 17-cyclopropylmethyl-6,7-didehydro-4,5α-epoxy-3,14β-dihydroxy-1',7'-(2",3"-benzotrimethylene)-6,7,2',3'-indolomorphinan] | 2.51 nM | 0.00437 mg/kg | – | –
Oc1ccc2c3c1O[C@H]1c4c(c5cccc6c5n4CCC6)C[C@@]4(O)[C@@H](C2)N(CC2CC2)CC[C@]314 [Compound 4, 17-cyclopropylmethyl-6,7-didehydro-4,5α-epoxy-3,14β-dihydroxy-1',7'-trimethylene-6,7,2',3'-indolomorphinan] | 0.398 nM | 0.00858 mg/kg | – | –
Cc1ccc2c3c1c1c(n3CCC2)[C@@H]2Oc3c(O)ccc4c3[C@@]23CCN(CC2CC2)[C@H](C4)[C@]3(O)C1 [Compound 5, 17-cyclopropylmethyl-6,7-didehydro-4,5α-epoxy-3,14β-dihydroxy-1',7'-trimethylene-4'-methyl-6,7,2',3'-indolomorphinan] | 5.01 nM | 0.0208 mg/kg | – | –
COc1ccc2c3c(n4c2c1CCC4)[C@@H]1Oc2c(O)ccc4c2[C@@]12CCN(CC1CC1)[C@H](C4)[C@]2(O)C3 [Compound 6, 17-cyclopropylmethyl-6,7-didehydro-4,5α-epoxy-3,14β-dihydroxy-1',7'-trimethylene-6'-methoxy-6,7,2',3'-indolomorphinan] | 3.16 nM | 0.00943 mg/kg | – | –
Cc1cc2c3c(c1)c1c(n3CCC2)[C@@H]2Oc3c(O)ccc4c3[C@@]23CCN(CC2CC2)[C@H](C4)[C@]3(O)C1 [Compound 7, 17-cyclopropylmethyl-6,7-didehydro-4,5α-epoxy-3,14β-dihydroxy-1',7'-trimethylene-5'-methyl-6,7,2',3'-indolomorphinan] | 5.01 nM | 0.0163 mg/kg | – | –
Oc1ccc2c3c1O[C@H]1c4c(c5cccc6c5n4CCCC6)C[C@@]4(O)[C@@H](C2)N(CC2CC2)CC[C@]314 [Compound 9, 17-cyclopropylmethyl-6,7-didehydro-4,5α-epoxy-3,14β-dihydroxy-1',7'-tetramethylene-6,7,2',3'-indolomorphinan] | – | 0.0123 mg/kg | – | pA2 (δ-opioid [1]): 8.5
Oc1ccc2c3c1O[C@H]1c4c(c5cc(F)cc6c5n4CCC6)C[C@@]4(O)[C@@H](C2)N(CC2CC2)CC[C@]314 [Compound 10, 17-cyclopropylmethyl-6,7-didehydro-4,5α-epoxy-3,14β-dihydroxy-1',7'-trimethylene-5'-fluoro-6,7,2',3'-indolomorphinan] | 1.58 nM | 0.0157 mg/kg | – | –
COc1ccc2c3c1O[C@H]1c4c(c5cccc6c5n4CCC6)C[C@@]4(O)[C@@H](C2)N(CC2CC2)CC[C@]314 [Compound 11, 17-Cyclopropylmethyl-6,7-didehydro-4,5α-epoxy-3-methoxy-14β-hydroxy-1',7'-trimethylene-6,7,2',3'-indolomorphinan] | – | 0.00343 mg/kg | – | pA2 (δ-opioid [1]): 8.2
C=CCCN1CC[C@]23c4c5ccc(O)c4O[C@H]2c2c(c4cccc6c4n2CCC6)C[C@@]3(O)[C@H]1C5 [Compound 28, 17-(3-butenyl)-6,7-didehydro-4,5α-epoxy-3,14β-dihydroxy-1',7'-trimethylene-6,7,2',3'-indolomorphinan] | – | – | 0.05 | IC50 (δ-opioid [2]): 15.8 nM; ED50 (acetic acid writhing): 16.7 mg/kg
CN1CC[C@]23c4c5ccc(O)c4O[C@H]2c2c(c4cccc6c4n2CCC6)C[C@@]3(O)[C@H]1C5 [Compound 55, 17-Methyl-6,7-didehydro-4,5α-epoxy-3,14β-dihydroxy-1',7'-trimethylene-6,7,2',3'-indolomorphinan] | – | – | 0.21 | IC50 (δ-opioid [2]): 18.2 nM
Oc1ccc2c3c1O[C@H]1c4c(c5cccc6c5n4CCC6)C[C@@]4(O)[C@@H](C2)N(CC2CCC2)CC[C@]314 [Compound 56, 17-cyclobutylmethyl-6,7-didehydro-4,5α-epoxy-3,14β-dihydroxy-1',7'-trimethylene-6,7,2',3'-indolomorphinan] | – | – | 6.21 | IC50 (δ-opioid [2]): 2.96 nM
Oc1ccc2c3c1O[C@H]1c4c(c5cccc6c5n4CCC6)C[C@@]4(O)[C@@H](C2)N(CCc2ccccc2)CC[C@]314 [Compound 57, 17-phenethyl-6,7-didehydro-4,5α-epoxy-3,14β-dihydroxy-1',7'-trimethylene-6,7,2',3'-indolomorphinan] | – | – | 0.06 | IC50 (δ-opioid [2]; concentration for 50% inhibition of MVD contraction induced by electric stimulation): 9.71 nM
Oc1ccc2c3c1O[C@H]1c4c(c5cccc6c5n4CCC6)C[C@@]4(O)[C@@H](C2)N(CCc2cccs2)CC[C@]314 [Compound 65, 17-(thiophene-2-ylethyl)-6,7-didehydro-4,5α-epoxy-3,14β-dihydroxy-1',7'-trimethylene-6,7,2',3'-indolomorphinan] | – | – | 0.03 | IC50 (δ-opioid [2]): 33.9 nM
